Test results: the CheMixHub viscosity set

Assay: xn = mol fraction of the nth substance listed

CCCOC(C)=O + CCCO
viscosity [mPa·s], 101.3 kPa
Conditions	x2 = 0.3042	x2 = 0.5372	x2 = 0.7245	x2 = 0.8572
298.15 K	0.592	0.755	0.987	1.305
308.15 K	0.53	0.653	0.829	1.066

ClC(Cl)(Cl)Cl + CCCO
101 kPa
Conditions	viscosity [mPa·s]
298.15 K, x2 = 0.0685	0.89
298.15 K, x2 = 0.1	0.903
298.15 K, x2 = 0.1294	0.909
298.15 K, x2 = 0.2085	0.962
298.15 K, x2 = 0.22	0.946
298.15 K, x2 = 0.2859	1.02
298.15 K, x2 = 0.31	1.012
298.15 K, x2 = 0.39	1.089
298.15 K, x2 = 0.3964	1.113
298.15 K, x2 = 0.5849	1.317
298.15 K, x2 = 0.63	1.409
298.15 K, x2 = 0.72	1.554
298.15 K, x2 = 0.79	1.667
298.15 K, x2 = 0.8446	1.724
298.15 K, x2 = 0.8705	1.769
298.15 K, x2 = 0.8955	1.808
298.15 K, x2 = 0.91	1.88
298.15 K, x2 = 0.9511	1.877
303.15 K, x2 = 0.0615	0.8319
303.15 K, x2 = 0.0651	0.8324
303.15 K, x2 = 0.1059	0.8333
303.15 K, x2 = 0.2377	0.8752
303.15 K, x2 = 0.3576	0.9546
303.15 K, x2 = 0.4503	1.041
303.15 K, x2 = 0.5592	1.163
303.15 K, x2 = 0.6985	1.339
303.15 K, x2 = 0.7899	1.461
303.15 K, x2 = 0.8376	1.524
303.15 K, x2 = 0.8976	1.603
303.15 K, x2 = 0.9626	1.682
303.15 K, x2 = 0.9633	1.684
308.15 K, x2 = 0.0685	0.775
308.15 K, x2 = 0.1294	0.785
308.15 K, x2 = 0.2085	0.817
308.15 K, x2 = 0.2859	0.849
308.15 K, x2 = 0.3964	0.905
308.15 K, x2 = 0.5849	1.071
308.15 K, x2 = 0.8446	1.383
308.15 K, x2 = 0.8705	1.402
308.15 K, x2 = 0.8955	1.435
308.15 K, x2 = 0.9511	1.487
318.15 K, x2 = 0.0685	0.676
318.15 K, x2 = 0.1294	0.686
318.15 K, x2 = 0.2085	0.702
318.15 K, x2 = 0.2859	0.735
318.15 K, x2 = 0.3964	0.772
318.15 K, x2 = 0.5849	0.882
318.15 K, x2 = 0.8446	1.109
318.15 K, x2 = 0.8705	1.128
318.15 K, x2 = 0.8955	1.152
318.15 K, x2 = 0.9511	1.196

CCC(C)(O)CC + CCO
298.15 K, 101.33 kPa
Conditions	viscosity [mPa·s]
x2 = 0.1124	3.619
x2 = 0.2131	3.405
x2 = 0.299	3.345
x2 = 0.4102	3.232
x2 = 0.5116	3.007
x2 = 0.6138	2.632
x2 = 0.7104	2.203
x2 = 0.7975	1.837
x2 = 0.901	1.405
